Literature values, collected in Sander's compilation of Henry's law constants (doi:10.2175/wer.65.7.2).

Test: Henry solubility constant Hcp at 293 K (mol/(m3 Pa))
Conditions: reference: Smith et al. (1993); cited value
For `c1ccccc1` [benzene], the “Henry solubility constant Hcp at 293 K” value is listed as 0.0018. For `Cc1ccccc1` [methylbenzene], the “Henry solubility constant Hcp at 293 K” value is listed as 0.0017.

Test: Henry solubility constant Hcp at 294 K (mol/(m3 Pa))
Conditions: reference: Smith et al. (1993); cited value
For `c1ccc2c(c1)ccc1ccccc12` [phenanthrene], the “Henry solubility constant Hcp at 294 K” value is given as 0.25.

Test: Henry solubility constant Hcp at 298.15 K (mol/(m3 Pa))
Conditions: reference: Smith et al. (1993); cited value
For `Cc1ccc(O)c(C)c1` [1-hydroxy-2,4-dimethylbenzene], the “Henry solubility constant Hcp” value is given as 0.58. In the case of `c1ccc2c(c1)Cc1ccccc1-2` [2,3-benzindene], the “Henry solubility constant Hcp” value is given as 0.084. For `c1cc2c3c(cccc3c1)CC2` [acenaphthene], the “Henry solubility constant Hcp” value is given as 0.041. In the case of `C1=Cc2cccc3cccc1c23` [acenaphthylene], the “Henry solubility constant Hcp” value is listed as 0.087. In the case of `c1ccc2cc3ccccc3cc2c1` [anthracene], the “Henry solubility constant Hcp” value is given as 0.11. For `c1ccc2c(c1)cc1ccc3cccc4ccc2c1c34` [benzo[a]pyrene], the “Henry solubility constant Hcp” value is given as 20. For `c1ccc2c(c1)-c1cccc3c1c-2cc1ccccc13` [benzo[b]fluoranthene], the “Henry solubility constant Hcp” value is given as 0.83. In the case of `c1cc2ccc3ccc4ccc5cccc6c(c1)c2c3c4c56` [benzo[ghi]perylene], the “Henry solubility constant Hcp” value is given as 180. For `c1ccc2c(c1)-c1cccc3cccc-2c13` [benzo[jk]fluorene], the “Henry solubility constant Hcp” value is listed as 1.5. In the case of `c1ccc2cc3c(cc2c1)-c1cccc2cccc-3c12` [benzo[k]fluoranthene], the “Henry solubility constant Hcp” value is listed as 0.25. In the case of `c1ccc2c(c1)ccc1c3ccccc3ccc21` [chrysene], the “Henry solubility constant Hcp” value is given as 9.4. In the case of `c1ccc2c(c1)ccc1cc3c(ccc4ccccc43)cc12` [dibenz[a,h]anthracene], the “Henry solubility constant Hcp” value is listed as 140. In the case of `c1ccc2c(c1)-c1ccc3ccc4cccc5cc-2c1c3c45` [indeno[1,2,3-cd]pyrene], the “Henry solubility constant Hcp” value is listed as 140. In the case of `c1ccc2ccccc2c1` [naphthalene], the “Henry solubility constant Hcp” value is given as 0.02.
